Consider three compounds from ChEMBL document CHEMBL5696442, “Discovery of type II inhibitors of TGFβ-activated kinase 1 (TAK1) and mitogen-activated protein kinase kinase kinase kinase 2 (MAP4K2)” (J Med Chem, 2015).

Assay [1] addresses Cyclin-dependent kinase 8 (Homo sapiens) (UniProt P49336). Nature of the assay: Inhibition of CDK8 Lys2 labeling site in human Huh-7 cell lysate at 1 uM by KiNativ Profiling analysis relative to control. The class given is subcellular.
For assay [2], the target named is T1, Serine/threonine-protein kinase TAO2 (Homo sapiens) (UniProt Q9UL54).
T1 sequence (whole entry): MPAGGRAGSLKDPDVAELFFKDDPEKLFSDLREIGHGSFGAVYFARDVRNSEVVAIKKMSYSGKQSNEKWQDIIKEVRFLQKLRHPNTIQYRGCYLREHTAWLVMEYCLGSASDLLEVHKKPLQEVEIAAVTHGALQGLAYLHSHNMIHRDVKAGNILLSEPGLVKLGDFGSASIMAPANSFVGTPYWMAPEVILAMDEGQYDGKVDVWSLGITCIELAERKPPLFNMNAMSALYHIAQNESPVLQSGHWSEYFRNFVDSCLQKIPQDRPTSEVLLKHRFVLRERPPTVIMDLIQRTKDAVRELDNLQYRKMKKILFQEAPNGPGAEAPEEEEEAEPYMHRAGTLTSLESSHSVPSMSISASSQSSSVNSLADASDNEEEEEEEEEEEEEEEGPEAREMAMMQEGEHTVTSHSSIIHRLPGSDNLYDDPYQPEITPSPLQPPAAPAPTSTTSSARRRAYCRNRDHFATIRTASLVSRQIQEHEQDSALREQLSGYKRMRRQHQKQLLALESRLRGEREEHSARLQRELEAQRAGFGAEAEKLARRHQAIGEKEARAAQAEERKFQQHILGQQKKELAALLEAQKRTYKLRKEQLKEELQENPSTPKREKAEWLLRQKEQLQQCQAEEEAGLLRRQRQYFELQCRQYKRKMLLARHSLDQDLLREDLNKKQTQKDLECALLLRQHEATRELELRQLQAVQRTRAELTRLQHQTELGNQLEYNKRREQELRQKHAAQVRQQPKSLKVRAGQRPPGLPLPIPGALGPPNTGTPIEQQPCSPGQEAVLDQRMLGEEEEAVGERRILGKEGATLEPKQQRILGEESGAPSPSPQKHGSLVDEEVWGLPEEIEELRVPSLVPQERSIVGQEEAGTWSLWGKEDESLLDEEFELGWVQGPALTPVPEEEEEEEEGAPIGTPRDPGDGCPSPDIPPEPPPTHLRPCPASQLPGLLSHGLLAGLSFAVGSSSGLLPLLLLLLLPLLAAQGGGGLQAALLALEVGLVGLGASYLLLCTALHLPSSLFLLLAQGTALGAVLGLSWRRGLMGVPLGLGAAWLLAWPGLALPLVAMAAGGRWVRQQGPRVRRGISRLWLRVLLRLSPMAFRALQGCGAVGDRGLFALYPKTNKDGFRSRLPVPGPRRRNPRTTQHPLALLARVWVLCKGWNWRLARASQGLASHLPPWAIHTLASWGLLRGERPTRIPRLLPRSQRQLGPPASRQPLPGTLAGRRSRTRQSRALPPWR
Nature of the assay: Inhibition of TAO2 Lys2 labeling site in human Huh-7 cell lysate at 1 uM by KiNativ Profiling analysis relative to control. The class given is subcellular.

Assay [3] deals with STE20-like serine/threonine-protein kinase (Homo sapiens) (UniProt Q9H2G2). Nature of the assay: Inhibition of SLK Lys2 labeling site harbouring DLKAGNILFTLDGDIK in human A-375 cells at 5 uM by KiNativ Profiling analysis relative to control. The class given is cell-based.
Assay [4] concerns the target Ephrin type-A receptor 6 (Homo sapiens) (UniProt Q9UF33). Nature of the assay: Inhibition of EPHA6 (unknown origin) at 1 uM by Ambit Kinomescan binding assay relative to control; values are per cent of control.
In assay [5] the target is T2, Serine/threonine-protein kinase D1 (Homo sapiens) (UniProt Q15139).
T2 sequence (whole entry): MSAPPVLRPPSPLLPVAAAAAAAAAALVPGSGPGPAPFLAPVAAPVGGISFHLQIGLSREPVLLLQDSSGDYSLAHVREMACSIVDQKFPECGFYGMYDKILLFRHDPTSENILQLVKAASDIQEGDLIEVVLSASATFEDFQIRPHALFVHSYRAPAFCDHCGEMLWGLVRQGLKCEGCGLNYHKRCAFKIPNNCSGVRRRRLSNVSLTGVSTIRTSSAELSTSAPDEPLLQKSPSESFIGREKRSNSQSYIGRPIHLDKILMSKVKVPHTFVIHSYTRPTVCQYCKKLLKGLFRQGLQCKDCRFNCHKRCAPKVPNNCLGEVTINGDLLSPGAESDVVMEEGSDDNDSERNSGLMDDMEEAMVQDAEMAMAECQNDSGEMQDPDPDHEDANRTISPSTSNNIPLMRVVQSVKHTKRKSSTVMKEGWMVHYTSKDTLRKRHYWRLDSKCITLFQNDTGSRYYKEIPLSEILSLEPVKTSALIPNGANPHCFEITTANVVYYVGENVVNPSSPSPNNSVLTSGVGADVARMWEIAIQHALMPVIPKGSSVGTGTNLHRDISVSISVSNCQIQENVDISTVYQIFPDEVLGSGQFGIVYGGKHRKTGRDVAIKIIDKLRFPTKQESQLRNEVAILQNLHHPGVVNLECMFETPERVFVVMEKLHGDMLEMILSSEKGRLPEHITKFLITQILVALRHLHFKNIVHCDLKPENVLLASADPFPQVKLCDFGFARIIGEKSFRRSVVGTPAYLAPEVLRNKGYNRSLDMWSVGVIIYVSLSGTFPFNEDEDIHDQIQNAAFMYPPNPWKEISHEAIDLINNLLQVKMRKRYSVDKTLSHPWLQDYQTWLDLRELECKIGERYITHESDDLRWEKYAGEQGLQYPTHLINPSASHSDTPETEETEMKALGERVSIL
Nature of the assay: Inhibition of PRKD1 (unknown origin) at 10 uM by Ambit Kinomescan binding assay.

Activity calls are given as the source filed them. The calls are words filed in the database; no cut-off is given here.

Chain of STE20-like serine/threonine-protein kinase (Homo sapiens) (Q9H2G2 whole entry, looked up): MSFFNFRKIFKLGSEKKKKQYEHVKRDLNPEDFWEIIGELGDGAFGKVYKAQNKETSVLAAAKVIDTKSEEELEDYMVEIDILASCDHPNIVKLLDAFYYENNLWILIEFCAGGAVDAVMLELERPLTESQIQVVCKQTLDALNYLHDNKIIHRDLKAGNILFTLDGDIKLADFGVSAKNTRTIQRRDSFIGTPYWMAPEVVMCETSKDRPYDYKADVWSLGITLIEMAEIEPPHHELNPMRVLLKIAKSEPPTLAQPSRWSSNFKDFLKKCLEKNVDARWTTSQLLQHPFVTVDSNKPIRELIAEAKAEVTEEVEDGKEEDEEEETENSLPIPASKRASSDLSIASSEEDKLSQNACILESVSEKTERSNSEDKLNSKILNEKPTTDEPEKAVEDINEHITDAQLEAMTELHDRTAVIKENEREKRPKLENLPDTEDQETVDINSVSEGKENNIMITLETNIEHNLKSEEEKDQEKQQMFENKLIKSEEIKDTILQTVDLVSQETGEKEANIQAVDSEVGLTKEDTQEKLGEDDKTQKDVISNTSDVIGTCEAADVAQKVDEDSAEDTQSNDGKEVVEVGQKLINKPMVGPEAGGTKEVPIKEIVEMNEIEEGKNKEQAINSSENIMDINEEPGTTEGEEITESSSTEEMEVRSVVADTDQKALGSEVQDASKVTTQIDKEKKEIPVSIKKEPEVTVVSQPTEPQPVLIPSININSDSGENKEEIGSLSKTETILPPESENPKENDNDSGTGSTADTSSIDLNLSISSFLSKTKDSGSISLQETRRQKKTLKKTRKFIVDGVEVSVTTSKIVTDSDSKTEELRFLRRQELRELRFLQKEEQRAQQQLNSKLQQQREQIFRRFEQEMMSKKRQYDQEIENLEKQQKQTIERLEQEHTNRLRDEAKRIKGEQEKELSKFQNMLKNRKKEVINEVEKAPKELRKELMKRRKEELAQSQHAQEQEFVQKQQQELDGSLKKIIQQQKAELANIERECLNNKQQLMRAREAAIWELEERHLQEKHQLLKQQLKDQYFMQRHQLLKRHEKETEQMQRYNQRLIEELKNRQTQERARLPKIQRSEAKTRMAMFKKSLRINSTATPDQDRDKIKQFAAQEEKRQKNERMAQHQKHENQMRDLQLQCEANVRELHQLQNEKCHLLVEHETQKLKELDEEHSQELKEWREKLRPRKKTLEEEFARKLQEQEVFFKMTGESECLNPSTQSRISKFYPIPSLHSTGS
Chain of Cyclin-dependent kinase 8 (Homo sapiens) (P49336 whole entry): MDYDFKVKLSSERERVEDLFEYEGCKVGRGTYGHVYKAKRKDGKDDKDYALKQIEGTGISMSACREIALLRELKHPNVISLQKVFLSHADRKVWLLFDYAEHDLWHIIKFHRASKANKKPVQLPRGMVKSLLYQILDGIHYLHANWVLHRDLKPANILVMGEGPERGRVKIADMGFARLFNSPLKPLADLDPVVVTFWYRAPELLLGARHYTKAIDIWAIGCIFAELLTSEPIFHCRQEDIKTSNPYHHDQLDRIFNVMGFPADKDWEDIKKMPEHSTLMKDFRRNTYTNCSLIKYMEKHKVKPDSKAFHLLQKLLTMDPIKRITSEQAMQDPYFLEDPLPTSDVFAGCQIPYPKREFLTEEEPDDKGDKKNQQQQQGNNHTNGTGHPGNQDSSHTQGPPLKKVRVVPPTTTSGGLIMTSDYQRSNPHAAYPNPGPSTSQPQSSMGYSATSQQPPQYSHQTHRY
Chain of Ephrin type-A receptor 6 (Homo sapiens) (Q9UF33 whole entry): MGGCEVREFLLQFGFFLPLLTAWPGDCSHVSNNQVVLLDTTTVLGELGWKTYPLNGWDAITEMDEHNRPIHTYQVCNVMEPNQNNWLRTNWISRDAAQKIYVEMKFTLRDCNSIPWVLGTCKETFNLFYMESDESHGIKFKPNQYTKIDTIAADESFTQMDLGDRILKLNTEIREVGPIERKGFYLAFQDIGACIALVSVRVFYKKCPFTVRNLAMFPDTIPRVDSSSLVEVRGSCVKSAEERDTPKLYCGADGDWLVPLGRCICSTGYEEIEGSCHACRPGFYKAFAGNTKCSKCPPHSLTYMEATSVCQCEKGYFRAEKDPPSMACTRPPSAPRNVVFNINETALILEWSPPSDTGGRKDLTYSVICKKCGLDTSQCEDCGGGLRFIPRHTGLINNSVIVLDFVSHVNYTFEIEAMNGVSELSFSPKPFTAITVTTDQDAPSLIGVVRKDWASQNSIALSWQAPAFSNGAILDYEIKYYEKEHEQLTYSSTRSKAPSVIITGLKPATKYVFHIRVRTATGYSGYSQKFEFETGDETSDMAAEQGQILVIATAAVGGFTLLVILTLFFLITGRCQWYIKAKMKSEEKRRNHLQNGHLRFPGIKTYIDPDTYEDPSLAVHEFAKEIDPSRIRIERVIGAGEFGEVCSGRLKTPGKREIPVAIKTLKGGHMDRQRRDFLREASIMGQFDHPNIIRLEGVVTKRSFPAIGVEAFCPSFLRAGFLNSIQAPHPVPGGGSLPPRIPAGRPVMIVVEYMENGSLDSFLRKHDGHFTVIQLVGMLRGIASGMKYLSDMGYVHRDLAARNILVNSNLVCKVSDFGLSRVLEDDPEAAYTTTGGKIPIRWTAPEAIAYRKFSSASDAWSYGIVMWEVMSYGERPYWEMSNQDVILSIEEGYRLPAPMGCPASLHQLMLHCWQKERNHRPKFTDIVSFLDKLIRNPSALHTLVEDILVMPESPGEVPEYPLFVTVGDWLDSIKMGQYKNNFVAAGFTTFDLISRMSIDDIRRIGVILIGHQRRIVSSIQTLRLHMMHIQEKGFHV

Take `CNc1cc(Oc2cc(C(=O)Nc3cc(N4CCN(C)CC4)cc(C(F)(F)F)c3)ccc2C)ncn1`: the figures for the inhibition in assay [1] and in assay [2] were -8.6% and 7.5%, respectively.
For `CCN1CCN(Cc2ccc(NC(=O)c3ccc(C)c(/C=C/c4cnc5[nH]ccc5c4OC)c3)cc2C(F)(F)F)CC1`, in assay [3], the inhibition stood at 12.2%. The compound further had a residual activity in assay [4] of 29%.
With `CCN1CCN(Cc2ccc(NC(=O)c3ccc(C)c(Oc4ccnc5[nH]ccc45)c3)cc2C(F)(F)F)CC1`, the inhibition entry in assay [5] was “inactive”.

The term inhibition denotes the drop in the measured response relative to a control, in per cent. A word on the residual activity: it is the share of the control activity or signal that is left under treatment. A higher residual activity goes with a small loss of activity.
